Patent US20210207064A1, “COMPOUND FOR RESTORING CONTAMINATED SOIL OR CONTAMINATED WATER” (FNG RESEARCH CO., LTD., priority 2018, published 2021)

Key:
[1] = Heavy metal removal ability test in contaminated soil around a factory (WAK-Me test kit); settings: 1.0 wt % aqueous solution, colour comparison test kit
Procedure: The contaminated soil around the factory in the industrial complex was collected, pulverized, and meshed to prepare fine particles of soil samples.
Each 3 ml of aqueous solutions for restoring soil was added to soil samples and mixed for 5 minutes.

[2] = Heavy metal removal ability test in contaminated soil (ICP-MS), cadmium; settings: for Cadmium (Cd) Adsorption amount: contaminated soil; for Cadmium (Cd) Adsorption rate: relative to EDTA control
Procedure: (§1) (1) Preparation of Soil Contaminated with Heavy Metal
(§2) After collecting and pulverizing uncontaminated soil, fine particles obtained by using a mesh were mixed with the aqueous heavy metal solution to prepare soil samples contaminated with heavy metals.
(§3) Each 3 ml of the prepared aqueous solution was added to a soil sample contaminated with heavy metals and mixed for 5 minutes.
(§4) 50 ml of distilled water was added to the contaminated soil mixed with the aqueous solution for restoring soil, stirred for 20 minutes, and settled for 1 hour, and a supernatant was prepared as a sample solution.
(§5) The prepared sample solution was analyzed for the heavy metal component using an Inductively Coupled Plasma Mass Spectrometer (ICP-MS) (Xseries™ 2, Thermo Fisher Scientific, UK).
(§6) Adsorption rate of heavy metals (%)=(Adsorption amount of Embodiment/Adsorption amount of Control)×100 Equation 1

human skin = experiment: Skin irritation test of active ingredient (patch method, CTFA guidelines); assay type: in vivo; settings: 24 h patch; for Test result (number of subject) (+) / Test result (number of subject) (++) / Test result (number of subject) (±) / Test result (number of subject) (−): 20 people; for Test result (number of subject) (+): (+) apparent reddening; for Test result (number of subject) (++): (++) more reddened and swollen; for Test result (number of subject) (±): (±) slightly reddish; for Test result (number of subject) (−): (−) no erythema
Procedure: A filter paper disk was placed in an 8 mm diameter, 10 panels of pin chamber.
After 24 hours, the pin chamber was removed, and skin conditions were visually observed. The degree and grade for skin irritation were calculated according to the following Equation 2, and the results are shown in Table 4 below.
[Criteria for Skin Irritation]
(−): No erythema or particularly no symptoms; (±): slightly reddish than the periphery; (+): Apparent reddening than periphery; (++): More reddened and swollen than periphery.
[Grade for Skin Irritation]
Degree of irritation 0-0.1: Grade I (unstimulated);
Degree of irritation 0.11-0.3: Grade II (weakly stimulated);
Degree of irritation 0.31-0.5: Grade III (moderately stimulated);
Degree of irritation 0.51 or more: Grade IV (strongly stimulated)

[3] = Formaldehyde (formalin) removing ability test (GC); settings: 2.0% formaldehyde solution, 3 molar equivalents of compound, room temperature; for Formaldehyde GC Area, 30 min: after 30 min; for Formaldehyde GC Area, 180 min: after 180 min; for Formaldehyde GC Area, Initial: initial state
[4] = Heavy metal removal ability test in contaminated soil (ICP-MS), arsenic; settings: for Arsenic (As) Adsorption amount: contaminated soil; for Arsenic (As) Adsorption rate: relative to EDTA control
Procedure: as §1, §2, §3, §4, §5, §6

[5] = Heavy metal removal ability test in contaminated soil (ICP-MS), nickel; settings: for Nickel (Ni) Adsorption amount: contaminated soil; for Nickel (Ni) Adsorption rate: relative to EDTA control
Procedure: as §1, §2, §3, §4, §5, §6

Row | Compound | Total amount (Cu, Zn, Mn, Ni, Cd) [1] | Cadmium (Cd) Adsorption amount ([2]; content 0.5% aqueous solution) | Cadmium (Cd) Adsorption rate ([2]; content 0.5%) | Cadmium (Cd) Adsorption amount ([2]; content 1.0% aqueous solution) | Cadmium (Cd) Adsorption rate ([2]; content 1.0%) | Cadmium (Cd) Adsorption amount ([2]; content 2.0% aqueous solution) | Cadmium (Cd) Adsorption rate ([2]; content 2.0%) | Test result (number of subject) (+) (human skin; content 0.1 wt %) | Test result (number of subject) (++) (human skin; content 0.1 wt %) | Test result (number of subject) (±) (human skin; content 0.1 wt %) | Test result (number of subject) (−) (human skin; content 0.1 wt %) | Degree of irritation (human skin; content 0.1 wt %) | Grade for skin irritation (human skin; content 0.1 wt %) | Test result (number of subject) (+) (human skin; content 0.5 wt %) | Test result (number of subject) (++) (human skin; content 0.5 wt %) | Test result (number of subject) (±) (human skin; content 0.5 wt %) | Test result (number of subject) (−) (human skin; content 0.5 wt %) | Degree of irritation (human skin; content 0.5 wt %) | Grade for skin irritation (human skin; content 0.5 wt %) | Test result (number of subject) (+) (human skin; content 1.0 wt %) | also measured
1 | O=C(O)c1ccc(N2CCN(c3ccc(C(=O)O)o3)CCN(c3ccc(C(=O)O)o3)CCN(c3ccc(C(=O)O)o3)CC2)o1 [Embodiment 8, 5,5′,5″,5′″-(1,4,7,10-tetraazacyclododecane-1,4,7,10-tetrayl)tetrakis(furan-2-carboxylic Acid)] | ≤5 ppm | 61 ppm | 149% | 64 ppm | 156% | 71 ppm | 173% | 0 | 0 | 0 | 20 | 0 | I (Degree of irritation 0-0.1: Grade I (unstimulated)) | 0 | 0 | 0 | 20 | 0 | I (Degree of irritation 0-0.1: Grade I (unstimulated)) | 0 | Test result (number of subject) (++) (human skin; content 1.0 wt %): 0; Test result (number of subject) (±) (human skin; content 1.0 wt %): 2; Test result (number of subject) (−) (human skin; content 1.0 wt %): 18; Degree of irritation (human skin; content 1.0 wt %): 0.10; Grade for skin irritation (human skin; content 1.0 wt %): I (Degree of irritation 0-0.1: Grade I (unstimulated)); Formaldehyde GC Area, 30 min [3]: 0.168 mAU*min; Formaldehyde GC Area, 180 min [3]: 0 mAU*min; Formaldehyde GC Area, Initial [3]: 0.305 mAU*min; Arsenic (As) Adsorption amount ([4]; content 0.5% aqueous solution): 39 ppm; Arsenic (As) Adsorption rate ([4]; content 0.5%): 156%; Arsenic (As) Adsorption amount ([4]; content 1.0% aqueous solution): 47 ppm; Arsenic (As) Adsorption rate ([4]; content 1.0%): 188%; Arsenic (As) Adsorption amount ([4]; content 2.0% aqueous solution): 49 ppm; Arsenic (As) Adsorption rate ([4]; content 2.0%): 196%; Nickel (Ni) Adsorption amount ([5]; content 0.5% aqueous solution): 86 ppm; Nickel (Ni) Adsorption rate ([5]; content 0.5%): 176%; Nickel (Ni) Adsorption amount ([5]; content 1.0% aqueous solution): 96 ppm; Nickel (Ni) Adsorption rate ([5]; content 1.0%): 196%; Nickel (Ni) Adsorption amount ([5]; content 2.0% aqueous solution): 99 ppm; Nickel (Ni) Adsorption rate ([5]; content 2.0%): 202%
2 | O=C(O)CN1CCCN(CC(=O)O)CCN(CC(=O)O)CCCN(CC(=O)O)CC1 [Embodiment 9, 2,2′,2″,2′″-(1,4,8,11-tetraazacyclotetradecane-1,4,8,11-tetrayl)tetraacetic Acid] | ≤5 ppm | 61 ppm | 149% | 66 ppm | 161% | 70 ppm | 171% | 0 | 0 | 0 | 20 | 0 | I (Degree of irritation 0-0.1: Grade I (unstimulated)) | 0 | 0 | 0 | 20 | 0 | I (Degree of irritation 0-0.1: Grade I (unstimulated)) | 0 | Test result (number of subject) (++) (human skin; content 1.0 wt %): 0; Test result (number of subject) (±) (human skin; content 1.0 wt %): 2; Test result (number of subject) (−) (human skin; content 1.0 wt %): 18; Degree of irritation (human skin; content 1.0 wt %): 0.10; Grade for skin irritation (human skin; content 1.0 wt %): I (Degree of irritation 0-0.1: Grade I (unstimulated)); Formaldehyde GC Area, 30 min [3]: 0.182 mAU*min; Formaldehyde GC Area, 180 min [3]: 0 mAU*min; Formaldehyde GC Area, Initial [3]: 0.305 mAU*min; Arsenic (As) Adsorption amount ([4]; content 0.5% aqueous solution): 42 ppm; Arsenic (As) Adsorption rate ([4]; content 0.5%): 168%; Arsenic (As) Adsorption amount ([4]; content 1.0% aqueous solution): 46 ppm; Arsenic (As) Adsorption rate ([4]; content 1.0%): 184%; Arsenic (As) Adsorption amount ([4]; content 2.0% aqueous solution): 48 ppm; Arsenic (As) Adsorption rate ([4]; content 2.0%): 192%; Nickel (Ni) Adsorption amount ([5]; content 0.5% aqueous solution): 76 ppm; Nickel (Ni) Adsorption rate ([5]; content 0.5%): 155%; Nickel (Ni) Adsorption amount ([5]; content 1.0% aqueous solution): 85 ppm; Nickel (Ni) Adsorption rate ([5]; content 1.0%): 173%; Nickel (Ni) Adsorption amount ([5]; content 2.0% aqueous solution): 96 ppm; Nickel (Ni) Adsorption rate ([5]; content 2.0%): 196%
3 | O=C(O)c1ccc(N2CCCN(c3ccc(C(=O)O)cc3)CCN(c3ccc(C(=O)O)cc3)CCCN(c3ccc(C(=O)O)cc3)CC2)cc1 [Embodiment 10, 4,4′,4″,4′″-(1,4,8,11-tetraazacyclotetradecane-1,4,8,11-tetrayl)tetrabenzoic Acid] | ≤5 ppm | 58 ppm | 141% | 65 ppm | 159% | 71 ppm | 173% | 0 | 0 | 0 | 20 | 0 | I (Degree of irritation 0-0.1: Grade I (unstimulated)) | 0 | 0 | 0 | 20 | 0 | I (Degree of irritation 0-0.1: Grade I (unstimulated)) | 0 | Test result (number of subject) (++) (human skin; content 1.0 wt %): 0; Test result (number of subject) (±) (human skin; content 1.0 wt %): 1; Test result (number of subject) (−) (human skin; content 1.0 wt %): 19; Degree of irritation (human skin; content 1.0 wt %): 0.05; Grade for skin irritation (human skin; content 1.0 wt %): I (Degree of irritation 0-0.1: Grade I (unstimulated)); Formaldehyde GC Area, 30 min [3]: 0.171 mAU*min; Formaldehyde GC Area, 180 min [3]: 0 mAU*min; Formaldehyde GC Area, Initial [3]: 0.305 mAU*min; Arsenic (As) Adsorption amount ([4]; content 0.5% aqueous solution): 39 ppm; Arsenic (As) Adsorption rate ([4]; content 0.5%): 156%; Arsenic (As) Adsorption amount ([4]; content 1.0% aqueous solution): 42 ppm; Arsenic (As) Adsorption rate ([4]; content 1.0%): 168%; Arsenic (As) Adsorption amount ([4]; content 2.0% aqueous solution): 46 ppm; Arsenic (As) Adsorption rate ([4]; content 2.0%): 184%; Nickel (Ni) Adsorption amount ([5]; content 0.5% aqueous solution): 79 ppm; Nickel (Ni) Adsorption rate ([5]; content 0.5%): 161%; Nickel (Ni) Adsorption amount ([5]; content 1.0% aqueous solution): 92 ppm; Nickel (Ni) Adsorption rate ([5]; content 1.0%): 188%; Nickel (Ni) Adsorption amount ([5]; content 2.0% aqueous solution): 94 ppm; Nickel (Ni) Adsorption rate ([5]; content 2.0%): 192%
